Test results taken from patent publication US4510139A, “Substituted aminobenzamides and their use as agents which inhibit lipoxygenase activity” (Sterling Drug Inc., priority 1984, dated 1985).
Read-outs that look alike come from different tables or passages of the source.

Key:
lipoxygenase = target: T1, lipoxygenase (Rattus norvegicus, UniProt P12527); assay: Inhibition of lipoxygenase derived from rat basophilic leukemia (RBL-1) cells, products L1 (5,12-di-HETE) and L2 (5-HETE); format: biochemical; settings: for inhibition at 10 µM: dose of 10 μM
T1 construct: microsomal fraction containing lipoxygenase and cyclooxygenase; endogenous in cells; host or cells: RBL-1 (rat basophilic leukemia) cells, homogenate / microsomal fraction
T1 sequence (P12527 1-673): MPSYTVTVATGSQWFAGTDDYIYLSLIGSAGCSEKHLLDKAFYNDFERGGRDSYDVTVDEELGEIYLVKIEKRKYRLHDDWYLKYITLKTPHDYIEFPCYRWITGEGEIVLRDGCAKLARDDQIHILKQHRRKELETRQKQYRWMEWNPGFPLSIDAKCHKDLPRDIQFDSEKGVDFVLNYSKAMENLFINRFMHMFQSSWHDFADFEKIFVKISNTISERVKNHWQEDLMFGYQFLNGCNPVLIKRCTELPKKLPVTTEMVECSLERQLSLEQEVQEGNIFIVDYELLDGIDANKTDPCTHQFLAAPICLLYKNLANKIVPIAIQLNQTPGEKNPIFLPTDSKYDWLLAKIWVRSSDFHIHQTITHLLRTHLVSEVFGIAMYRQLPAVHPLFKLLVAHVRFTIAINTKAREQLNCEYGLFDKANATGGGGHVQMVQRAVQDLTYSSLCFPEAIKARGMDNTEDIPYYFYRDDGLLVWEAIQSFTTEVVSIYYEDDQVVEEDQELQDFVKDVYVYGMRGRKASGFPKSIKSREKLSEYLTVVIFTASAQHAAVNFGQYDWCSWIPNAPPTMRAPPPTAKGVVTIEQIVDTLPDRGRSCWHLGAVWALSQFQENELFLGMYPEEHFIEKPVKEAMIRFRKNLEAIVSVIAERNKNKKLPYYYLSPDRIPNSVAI
Procedure: (§1) The primary screening test used is a determination of the inhibition of lipoxygenase and cyclooxygenase derived from rat basophilic leukemia (RBL-1) cells. The test was carried out according to the following procedure:
(§2) Single cell suspensions of RBL-1 cells are homogenized to obtain the microsomal fraction containing lipoxygenase and cyclooxygenase. Test compounds are added to the enzyme-containing homogenate for a 5 min preincubation period at 37° C. prior to the addition of ^14 C-arachidonic acid substrate. Following incubation at 37° C. for 15 min, the reaction is stopped by the addition of 2M formic acid and the enzyme-substrate products are extracted into chloroform. An aliquot of the extract is evaporated to dryness, reconstituted in ether to 1/10 original volume, spotted in thin layer chromatography plates and chromatographed. The peak areas of radioactivity representing the products are located by scanning the plates. The quantity of products formed is estimated by measuring the height of the radioactivity peaks observed on the chromatographic scans. Alternatively, the areas of radioactivity are scraped from the plate and the ^14 C quantitated by scintillation counting.

cyclooxygenase = target: T2, cyclooxygenase (Rattus norvegicus, UniProt Q63921); assay: Inhibition of cyclooxygenase derived from rat basophilic leukemia (RBL-1) cells, product C1 (PGD2); format: biochemical; settings: for inhibition at 1 µM: dose of 1 μM
T2 construct: microsomal fraction containing lipoxygenase and cyclooxygenase; endogenous in cells; host or cells: RBL-1 (rat basophilic leukemia) cells, homogenate / microsomal fraction
T2 sequence (Q63921 27-602): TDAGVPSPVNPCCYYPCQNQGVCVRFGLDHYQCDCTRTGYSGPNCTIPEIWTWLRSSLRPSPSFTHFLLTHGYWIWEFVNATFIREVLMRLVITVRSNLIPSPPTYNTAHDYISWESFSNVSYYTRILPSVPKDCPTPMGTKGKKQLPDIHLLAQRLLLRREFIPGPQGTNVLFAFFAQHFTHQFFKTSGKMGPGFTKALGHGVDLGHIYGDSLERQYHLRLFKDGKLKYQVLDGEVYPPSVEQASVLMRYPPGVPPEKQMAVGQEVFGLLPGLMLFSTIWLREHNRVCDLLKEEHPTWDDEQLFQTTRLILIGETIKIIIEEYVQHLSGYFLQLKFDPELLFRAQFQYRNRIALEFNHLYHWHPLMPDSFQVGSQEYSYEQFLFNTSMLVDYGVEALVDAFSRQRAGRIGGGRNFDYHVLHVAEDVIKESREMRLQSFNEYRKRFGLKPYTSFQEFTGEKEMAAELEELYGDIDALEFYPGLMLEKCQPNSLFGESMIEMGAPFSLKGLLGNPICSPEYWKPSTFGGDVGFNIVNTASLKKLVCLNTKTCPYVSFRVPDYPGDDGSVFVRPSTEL
Procedure: as §1, §2

[1] = test system: SRS-A component of immunologically induced broncho-constriction; assay: Effect on the SRS-A component of immunologically induced broncho-constriction in guinea pigs; format: in vivo; settings: Cavia porcellus; guinea pig, intravenous; read-out: ED50 (effective dose in 50% of the animals)
Procedure: The test was carried out according to the following procedure:
Two weeks after immunization with egg albumin, guinea pigs are prepared for bronchoconstriction determination. One hour prior to antigen challenge, each animal is dosed orally with indomethacin and chlorpheniramine. Animals are anesthetized with sodium pentobarbital, the trachea cannulated and the animal artifically respired. Arachidonic acid is administered intravenously prior to antigen challenge. The resulting bronchoconstriction is recorded by the standard lung overflow procedure and the peak increase in intratracheal pressure (mm Hg) over a 10 minute observation period is recorded. Compounds are evaluated for their ability to prevent the increased intratracheal pressure in an experimental group of animals as compared to the medicated (indomethacin+chlorpheniramine+arachidonic acid) control group. The results are expressed in terms of percent inhibition or as ED50 values (effective dose in 50% of the animals).

[2] = dose of 1 μM, L1 = 5,12-di-HETE, read-out: % Inhibition of lipoxygenase (L1) formation
[3] = dose of 1 μM, L2 = 5-HETE, read-out: % Inhibition of lipoxygenase (L2) formation
[4] = read-out: % Inhibition of cyclooxygenase (C1) formation
[5] = read-out: % Inhibition of lipoxygenase (L1) formation
[6] = read-out: % Inhibition of lipoxygenase (L2) formation

inhibition at 1 µM (lipoxygenase; [2]) | inhibition at 1 µM (lipoxygenase; [3]) | inhibition at 1 µM (cyclooxygenase; [4]) | inhibition at 10 µM (lipoxygenase; L1 = 5,12-di-HETE, read-out: % Inhibition of lipoxygenase (L1) formation) | inhibition at 10 µM (lipoxygenase; L2 = 5-HETE, read-out: % Inhibition of lipoxygenase (L2) formation) | inhibition at 10 µM (cyclooxygenase; dose of 10 μM, read-out: % Inhibition of cyclooxygenase (C1) formation) | SMILES | IC50 (lipoxygenase; IC50 L1, L1 = 5,12-di-HETE) | IC50 (lipoxygenase; IC50 L2, L2 = 5-HETE) | inhibition at 1 µM (lipoxygenase; [5]) | inhibition at 1 µM (lipoxygenase; [6]) | IC50 (cyclooxygenase) | ED50 [1]
24% | 42% | 7% | – | – | – | O=C(c1ccc(Cl)cc1Nc1ccc(O)cc1)N1CCCC1 [Example 19(d), 1-[4-Chloro-2-(4-hydroxyphenylamino)benzoyl]pyrrolidine] | – | – | – | – | – | –
63% | 75% | 16% | – | – | – | O=C(c1cc(Cl)ccc1Nc1ccc(O)cc1)N1CCCCC1 [Example 18(b), 1-[5-Chloro-2-(4-hydroxyphenylamino)benzoyl]piperidine] | – | – | – | – | – | –
37% | 42% | 1% | – | – | – | O=C(c1ccccc1Nc1ccc(O)cc1)N1CCOCC1 [Example 16(c), 4-[2-(4-Hydroxyphenylamino)benzoyl]morpholine] | – | – | – | – | – | –
33% | 63% | 0% | – | – | – | CCN(CC)C(=O)c1ccccc1Nc1ccc(O)cc1 [Example 8(b), N,N-Diethyl-2-(4-hydroxyphenylamino)benzamide] | – | – | – | – | – | –
66% | 77% | 0% | – | – | – | CCN(C)C(=O)c1ccccc1Nc1ccc(O)cc1 [Example 13(b), 2-(4-Hydroxyphenylamino)-N-ethyl-N-methylbenzamide] | – | – | – | – | – | –
– | – | – | 47% | 56% | 42% | O=C(c1ccccc1Nc1cccc(O)c1)N1CCCCC1 [Example 24(d), 1-[2-(3-Hydroxyphenylamino)benzoyl]piperidine] | – | – | – | – | – | –
56% | 73% | 0% | – | – | – | CCN(CC)C(=O)c1cc(Cl)ccc1Nc1ccc(O)cc1 [Example 17(d), 5-Chloro-N,N-diethyl-2-(4-hydroxyphenylamino)benzamide] | – | – | – | – | – | –
54% | 77% | 7% | – | – | – | CC1CCN(C(=O)c2ccccc2Nc2ccc(O)cc2)CC1 [Example 6(b), 1-[2-(4-Hydroxyphenylamino)benzoyl]-4-methylpiperidine] | – | – | – | – | – | –
72% | 78% | 0% | – | – | – | CC(C)NC(=O)c1ccccc1Nc1ccc(O)cc1 [Example 9(b), 2-(4-Hydroxyphenylamino)-N-isopropylbenzamide] | – | – | – | – | – | –
32% | 44% | 12% | – | – | – | O=C(c1ccc(Cl)cc1Nc1ccc(O)cc1)N1CCCCC1 [Example 20(b), 1-[4-Chloro-2-(4-hydroxyphenylamino)benzoyl]piperidine] | – | – | – | – | – | –
23% | 48% | 2% | – | – | – | CNC(=O)c1ccccc1Nc1ccc(O)cc1 [Example 7(b), 2-(4-Hydroxyphenylamino)-N-methylbenzamide] | – | – | – | – | – | –
34% | 56% | 1% | – | – | – | CN(C)C(=O)c1ccccc1Nc1ccc(O)cc1 [Example 10(b), 2-(4-Hydroxyphenylamino)-N,N-dimethylbenzamide] | – | – | – | – | – | –

Continued, compound first:

SMILES | inhibition at 1 µM (lipoxygenase; [2]) | inhibition at 1 µM (lipoxygenase; [3]) | inhibition at 1 µM (cyclooxygenase; [4]) | inhibition at 10 µM (lipoxygenase; L1 = 5,12-di-HETE, read-out: % Inhibition of lipoxygenase (L1) formation) | inhibition at 10 µM (lipoxygenase; L2 = 5-HETE, read-out: % Inhibition of lipoxygenase (L2) formation) | inhibition at 10 µM (cyclooxygenase; dose of 10 μM, read-out: % Inhibition of cyclooxygenase (C1) formation) | IC50 (lipoxygenase; IC50 L1, L1 = 5,12-di-HETE) | IC50 (lipoxygenase; IC50 L2, L2 = 5-HETE) | inhibition at 1 µM (lipoxygenase; [5]) | inhibition at 1 µM (lipoxygenase; [6]) | IC50 (cyclooxygenase) | ED50 [1]
O=C(c1ccccc1Nc1ccc(O)cc1)N1CCCC1 [Example 4(b), 1-[2-(4-Hydroxyphenylamino)benzoyl]pyrrolidine] | 41% | 52% | 0% | – | – | – | – | – | – | – | – | –
COc1ccc(Nc2ccc(O)cc2)c(C(=O)N2CCCCC2)c1 [Example 23(b), 1-[2-(4-Hydroxyphenylamino)-5-methoxybenzoyl]piperidine] | – | – | 19% | – | – | – | 540 nM | 610 nM | 89% | 96% | > 1000 nM | –
NC(=O)c1ccccc1Nc1ccc(O)cc1 [Example 3(b), 2-(4-Hydroxyphenylamino)benzamide] | – | – | 14% | – | – | – | 310 nM | 150 nM | 78% | 83% | > 1000 nM | –
CCCNC(=O)c1ccccc1Nc1ccc(O)cc1 [Example 5(b), 2-(4-Hydroxyphenylamino)-N-propylbenzamide] | – | – | 6% | – | – | – | 130 nM | 110 nM | 62% | 85% | > 1000 nM | –
O=C(NCc1ccccc1)c1ccccc1Nc1ccc(O)cc1 [Example 11(b), 2-(4-Hydroxyphenylamino)-N-benzylbenzamide] | – | – | 0% | – | – | – | 70 nM | 40 nM | 87% | 96% | > 1000 nM | 0.61 mg/kg
COc1ccc(Nc2ccc(O)cc2)c(C(=O)NCc2ccccc2)c1 [Example 22(d), 2-(4-Hydroxyphenylamino)-N-benzyl-5-methoxybenzamide] | – | – | 0% | – | – | – | 300 nM | 260 nM | 81% | 97% | > 1000 nM | –
CNC(=O)c1ccc(Cl)cc1Nc1ccc(O)cc1 [Example 21(b), 4-Chloro-2-(4-hydroxyphenylamino)-N-methylbenzamide] | – | – | – | – | – | – | 360 nM | 180 nM | – | – | > 1000 nM | –
O=C(NC1CCCCC1)c1ccccc1Nc1ccc(O)cc1 [Example 12(b), N-Cyclohexyl-2-(4-hydroxyphenylamino)benzamide] | – | – | 0% | – | – | – | 120 nM | 110 nM | 80% | 94% | > 1000 nM | –
O=C(c1ccccc1Nc1ccccc1O)N1CCCCC1 [Example 15(d), 1-[2-(2-Hydroxyphenylamino)benzoyl]piperidine] | – | – | 2% | – | – | – | 720 nM | 180 nM | 58% | 80% | > 1000 nM | –
O=C1C=CC(=Nc2ccccc2C(=O)N2CCCCC2)C=C1 [Example 2, 1-{2-[(4-Oxo-2,5-cyclohexadien-1-ylidene)amino]benzoyl}piperidine] | – | – | 0% | – | – | – | 450 nM | 130 nM | 68% | 82% | > 1000 nM | –
CCCN(CC)C(=O)c1ccccc1Nc1ccc(O)cc1 [Example 14(b), 2-(4-Hydroxyphenylamino)-N-ethyl-N-propylbenzamide] | – | – | 0% | – | – | – | 180 nM | 110 nM | 78% | 95% | > 1000 nM | –
